From US12060349B2, “Glucosylceramide synthase inhibitors” (Genzyme Corporation, priority 2012, dated 2024)
Where two headings read alike, the source gives them in different places.

Columns and labels:
[1] = test system: GM3 expression on the cell surface, B16 mouse melanoma cells; assay: cell based phenotypic assay, cell surface GM3 by antibody mediated immunofluorescence, B16 (GM3 B16 IC50); conditions: 50% inhibition of GM3 expression on the cell surface
Summary of the method: (§1)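 B16 mouse and C32 human melanoma cells; cell-surface GM3 measured by antibody-mediated immunofluorescence, giving IC50.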

[2] = test system: GM3 expression on the cell surface, C32 human melanoma cells; assay: cell based phenotypic assay, cell surface GM3 by antibody mediated immunofluorescence, C32 (GM3 C32 IC50); conditions: 50% inhibition of GM3 expression on the cell surface
Summary of the method: as §1

C32 human melanoma cells = assay: cell viability in the C32 cell-based assay (Viability, C32 IC50); conditions: concentration causing 50% cell death, values greater than 10 represent a lack of cell death
Summary of the method: (§2)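 Viability readouts were run alongside the GM3 cell-surface assay in the same B16 and C32 cultures. A figure above 10 indicates no cell death.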

B16 mouse melanoma cells = assay: cell viability in the B16 cell-based assay (Viability, B16 IC50)
Summary of the method: as §2

[3] = biological target: T1, glucosylceramide synthase (Homo sapiens, UniProt Q16739); assay: microsomal assay measuring conversion of ceramide to glucosylceramide by HPLC (GCS IC50); format: biochemical; conditions: concentration causing 50% inhibition of glucosylceramide synthase activity
T1 construct: Microsomes were isolated from A375 human melanoma cells; endogenous in cells; host or cells: A375 human melanoma cells (microsomal fraction, 100,000 g pellet)
T1 sequence (Q16739 1-394): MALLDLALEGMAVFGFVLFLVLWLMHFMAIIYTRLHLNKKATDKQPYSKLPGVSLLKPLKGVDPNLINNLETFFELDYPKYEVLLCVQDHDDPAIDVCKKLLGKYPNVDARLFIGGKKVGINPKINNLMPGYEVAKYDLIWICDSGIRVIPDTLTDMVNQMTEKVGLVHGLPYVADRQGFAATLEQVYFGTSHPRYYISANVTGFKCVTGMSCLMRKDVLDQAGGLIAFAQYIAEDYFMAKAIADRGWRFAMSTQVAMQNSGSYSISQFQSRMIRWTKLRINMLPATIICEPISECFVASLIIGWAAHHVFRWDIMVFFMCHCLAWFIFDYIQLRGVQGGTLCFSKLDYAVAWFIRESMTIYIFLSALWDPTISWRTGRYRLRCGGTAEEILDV
Summary of the method: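 IC50 is the compound concentration halving glucosylceramide synthase activity. Activity was measured in microsomes, with HPLC quantifying glucosylceramide formed from ceramide.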

[4] = Mus musculus, B16 mouse melanoma cells, read-out: GM3 B16 IC50
[5] = Homo sapiens, C32 human melanoma cells, read-out: GM3 C32 IC50
[6] = Homo sapiens, C32, C32 cells, read-out: Viability, C32 IC50
[7] = Mus musculus, B16, B16 cells, concentration causing 50% cell death, values greater than 10 represent a lack of cell death, read-out: Viability, B16 IC50
[8] = B16 mouse melanoma cells, read-out: GM3 B16 IC50
[9] = C32 human melanoma cells, read-out: GM3 C32 IC50
[10] = C32 cells, read-out: Viability, C32 IC50
[11] = B16 cells, concentration causing 50% cell death, values greater than 10 represent a lack of cell death, read-out: Viability, B16 IC50

IC50 [1, 4] [nM]	IC50 [2, 5] [nM]	IC50 [3] [nM]	Compound	IC50 (C32 human melanoma cells; [6]) [nM]	IC50 (B16 mouse melanoma cells; [7]) [nM]	IC50 [1, 8] [nM]	IC50 [2, 9] [nM]	IC50 (C32 human melanoma cells; [10]) [nM]	IC50 (B16 mouse melanoma cells; [11]) [nM]	IC50 ([1]; Mus musculus, read-out: GM3 B16 IC50, B16 mouse melanoma cells) [nM]	IC50 ([2]; Homo sapiens, read-out: GM3 C32 IC50, C32 human melanoma cells) [nM]	IC50 (C32 human melanoma cells; Homo sapiens, C32, read-out: Viability, C32 IC50, C32 cells) [nM]	IC50 (B16 mouse melanoma cells; Mus musculus, B16, read-out: Viability, B16 IC50) [nM]
4.29	0.126	2.48	CC1(NC(=O)C2CCN(c3nccc(-c4ccc(OCCF)cc4)n3)CC2)CCN2CCC1CC2 (stereo not drawn) [Example 71, 1-(4-(4-(2-Fluoroethoxy)phenyl)pyrimidin-2-yl)-N-(4-methyl-1-azabicyclo[3.2.2]nonan-4-yl)piperidine-4-carboxamide]	10	2150								
		16.6	4-(4-(4-Fluorophenyl)pyrimidin-2-yl)-3-methyl-N-(4-methyl-1-azabicyclo[3.2.2]nonan-4-yl)piperazine-1-carboxamide [Example 146]			110	0.559	1000	6370				
1240	175	2210	CC1(NC(=O)N2CCC(c3ccc(-c4ccccc4)cc3)CC2)CCN2CCC1CC2 (stereo not drawn) [Example 53, 4-([1,1′-Biphenyl]-4-yl)-N-(4-methyl-1-azabicyclo[3.2.2]nonan-4-yl)piperidine-1-carboxamide]	6290	6740								
3390	108	705	O=C(NC1CCN2CCC1CC2)N1CCN(c2cccc(-c3ccccc3)c2)CC1 (stereo not drawn) [Example 14, 4-([1,1′-Biphenyl]-3-yl)-N-(1-azabicyclo[3.2.2]nonan-4-yl)piperazine-1-carboxamide]	≥ 10000	6790								
12.2	1.44	4.23	CC(C)(NC(=O)OC1CCN2CCC1CC2)c1ccc(-c2ccc(S(=O)(=O)CC3CC3)cc2)cc1 (stereo not drawn) [Example 241, 1-Azabicyclo[3.2.2]nonan-4-yl (2-(4′-((cyclopropylmethyl)sulfonyl)-[1,1′-biphenyl]-4-yl)propan-2-yl)carbamate]	3160	≥ 10000								
51.3	3	25.1	COCCOc1cnc(N2CCC(C(=O)NC3(C)CCN4CCC3CC4)CC2)nc1-c1ccc(F)cc1 (stereo not drawn) [Example 104, 1-(4-(4-Fluorophenyl)-5-(2-methoxyethoxy)pyrimidin-2-yl)-N-(4-methyl-1-azabicyclo[3.2.2]nonan-4-yl)piperidine-4-carboxamide]	1000	≥ 10000								
76.3	0.439	2.88	C[C@@H]1CN(C(=O)NC2(C)CCN3CCC2CC3)CCN1c1ncc(Oc2ccc(F)cc2)cn1 (stereo partly drawn) [Example 152, (3R)-4-(5-(4-Fluorophenoxy)pyrimidin-2-yl)-3-methyl-N-(4-methyl-1-azabicyclo[3.2.2]nonan-4-yl)piperazine-1-carboxamide]	316	6770								
106	7.74	20.2	CC(C)(NC(=O)OC1CCN2CCC1CC2)c1ccc(-c2ccc(OCCCn3ccnn3)cc2)cc1 (stereo not drawn) [Example 187, 1-Azabicyclo[3.2.2]nonan-4-yl (2-(4′-(3-(1H-1,2,3-triazol-1-yl)propoxy)-[1,1′-biphenyl]-4-yl)propan-2-yl)carbamate]	1000	≥ 10000								
5.9	0.35	1.12	COCCCc1ccc(-c2ccc(C3(NC(=O)NC4(C)CCN5CCC4CC5)CC3)cc2)cc1 (stereo not drawn) [Example 213, 1-(1-(4′-(3-Methoxypropyl)-[1,1′-biphenyl]-4-yl)cyclopropyl)-3-(4-methyl-1-azabicyclo[3.2.2]nonan-4-yl)urea]	≥ 10000	9220								
7240	126	1800	CC1(NC(=O)C2CCN(c3cccc(-c4ncccn4)c3)CC2)CCN2CCC1CC2 (stereo not drawn) [Example 39, N-(4-Methyl-1-azabicyclo[3.2.2]nonan-4-yl)-1-(3-(pyrimidin-2-yl)phenyl)piperidine-4-carboxamide]	3160	≥ 10000								
109	1.17	8.23	COCCOCc1ccc(-c2ccnc(N3CCC(F)(C(=O)NC4(C)CCN5CCC4CC5)CC3)n2)cc1 (stereo not drawn) [Example 89, 4-Fluoro-1-(4-(4-((2-methoxyethoxy)methyl)phenyl)pyrimidin-2-yl)-N-(4-methyl-1-azabicyclo[3.2.2]nonan-4-yl)piperidine-4-carboxamide]	316	9470								
99.9	3.87	12.9	CC(C)(NC(=O)NC1(C)CCN2CCC1CC2)c1ccc(-c2ccc(OCCn3ccnn3)cc2)cc1 (stereo not drawn) [Example 185, 1-(2-(4′-(2-(1H-1,2,3-Triazol-1-yl)ethoxy)-[1,1′-biphenyl]-4-yl)propan-2-yl)-3-(4-methyl-1-azabicyclo[3.2.2]nonan-4-yl)urea]	1000	3160								

Compound	IC50 [1, 4] [nM]	IC50 [2, 5] [nM]	IC50 [3] [nM]	IC50 (C32 human melanoma cells; [6]) [nM]	IC50 (B16 mouse melanoma cells; [7]) [nM]	IC50 [1, 8] [nM]	IC50 [2, 9] [nM]	IC50 (C32 human melanoma cells; [10]) [nM]	IC50 (B16 mouse melanoma cells; [11]) [nM]	IC50 ([1]; Mus musculus, read-out: GM3 B16 IC50, B16 mouse melanoma cells) [nM]	IC50 ([2]; Homo sapiens, read-out: GM3 C32 IC50, C32 human melanoma cells) [nM]	IC50 (C32 human melanoma cells; Homo sapiens, C32, read-out: Viability, C32 IC50, C32 cells) [nM]	IC50 (B16 mouse melanoma cells; Mus musculus, B16, read-out: Viability, B16 IC50) [nM]
CNC(=O)c1ccc(-c2ccc(C(C)(C)NC(=O)OC3CN4CCC3CC4)cc2)cc1 (stereo not drawn) [Example 252, Quinuclidin-3-yl (2-(4′-(methylcarbamoyl)-[1,1′-biphenyl]-4-yl)propan-2-yl)carbamate]			1840							1500	220	≥ 10000	≥ 10000
O=C(NC1CN2CCC1CC2)N1CCN(c2cccc(-c3ccccc3)c2)CC1 (stereo not drawn) [Example 13, 4-([1,1′-Biphenyl]-3-yl)-N-(quinuclidin-3-yl)piperazine-1-carboxamide]	6800	697	2470	≥ 10000	8590								
4-(4′-Fluoro-[1,1′-biphenyl]-3-yl)-N-(4-methyl-1-azabicyclo[3.2.2]nonan-4-yl)piperazine-1-carboxamide [Example 22]			613			629	41.1	1000	7060				
COCCCOc1ccc(-c2ccc(C(C)(C)NC(=O)NC3(C)CN4CCC3CC4)cc2)cc1 (stereo not drawn) [Example 173, 1-(2-(4′-(3-Methoxypropoxy)-[1,1′-biphenyl]-4-yl)propan-2-yl)-3-(3-methylquinuclidin-3-yl)urea]	20.3	0.766	1.98	≥ 10000	≥ 10000								
CC(C)(C)CCS(=O)(=O)c1ccc(-c2ccc(C(C)(C)NC(=O)NC3(C)CN4CCC3CC4)cc2)cc1 (stereo not drawn) [Example 246, 1-(2-(4′-((3,3-Dimethylbutyl)sulfonyl)-[1,1′-biphenyl]-4-yl)propan-2-yl)-3-(3-methylquinuclidin-3-yl)urea]	11.4	0.624	1.7	1000	≥ 10000								
CCC1(NC(=O)NC(C)(C)c2ccc(-c3ccc(S(C)(=O)=O)cc3)cc2)CN2CCC1CC2 (stereo not drawn) [Example 236, 1-(3-Ethylquinuclidin-3-yl)-3-(2-(4′-(methylsulfonyl)-[1,1′-biphenyl]-4-yl)propan-2-yl)urea]	74.4	9.46	53.8	≥ 10000	≥ 10000								
CCC1(NC(=O)NC(C)(C)c2ccc(-c3ccc(C(=O)N4CCCCC4)cc3)cc2)CN2CCC1CC2 (stereo not drawn) [Example 264, 1-(3-Ethylquinuclidin-3-yl)-3-(2-(4′-(piperidine-1-carbonyl)biphenyl-4-yl)propan-2-yl)urea]	67.4	2.13	13.7	1000	≥ 10000								
CC1(NC(=O)C2CCN(c3cccc(-c4ccc(F)cc4)c3)CC2)CN2CCC1CC2 (stereo not drawn) [Example 33, 1-(4′-Fluoro-[1,1′-biphenyl]-3-yl)-N-(3-methylquinuclidin-3-yl)piperidine-4-carboxamide]	237	5.02	22.1	1000	6910								
2-(3-(3-(Methylcarbamoyl)phenoxy)phenyl)propan-2-ylcarbamate [Example 295]			1020			1750	147	≥ 10000	≥ 10000				
